Experimental data reported in ChEMBL document CHEMBL3526141, “Characterization of human liver enzymes involved in the biotransformation of boceprevir, a hepatitis C virus protease inhibitor” (Drug Metab Dispos, 2011).

Legend:
Liver cytosol [1] = assay: Drug metabolism in human liver cytosol assessed as (1R,2S,5S)-N-((2S,3R)-4-amino-1-cyclobutyl-3-hydroxy-4-oxobutan-2-yl)-3-((S)-2-(3-tert-butylureido)-3,3-dimethylbutanoyl)-6,6-dimethyl-3-azabicyclo[3.1.0]hexane-2-carboxamide formation after 60 mins by LC-MS/MS/FSA method; type: ADME, tissue-based; conditions: 1 h
Liver cytosol [2] = assay: (§1) Drug metabolism in human liver cytosol assessed as (1R,2S,5S)-N-((2S,3R)-4-amino-1-cyclobutyl-3-hydroxy-4-oxobutan-2-yl)-3-((S)-2-(3-tert-butylureido)-3,3-dimethylbutanoyl)-6,6-dimethyl-3-azabicyclo[3.1.0]hexane-2-carboxamide formation per mg protein after 60 mins by LC-MS/MS/FSA method; type: ADME, tissue-based; conditions: 1 h
Liver cytosol [3] = assay: as §1, with “Ratio of Vmax to Km for drug” for “Drug”; type: ADME; conditions: 1 h
[4] = Retention time of the compound by LC-MS/MS method; type: physicochemical
Plasma = assay: Drug metabolism in human plasma treated with [14C]boceprevir assessed as ratio of drug level by LC-MS/MS method relative to boceprevir; type: ADME, cell-free
Liver microsome [5] = assay: Drug metabolism in human liver microsomes treated with 5 uM [14C]boceprevir assessed as compound formation by LC-MS/FSA method relative to total [14C]boceprevir; type: ADME
Liver microsome [6] = assay: Drug metabolism in human liver microsomes treated with 20 uM [14C]boceprevir assessed as compound formation by LC-MS/FSA method relative to total [14C]boceprevir; type: ADME
Cytochrome P450 3A4 [7] = biological target: T1, Cytochrome P450 3A4 (Homo sapiens, UniProt P08684); assay: Drug metabolism assessed as human CYP3A4-mediated compound formation from 5 uM [14C]boceprevir after 120 mins by LC-MS/FSA method relative to total [14C]boceprevir; type: ADME; conditions: recombinant enzyme, 2 h
Cytochrome P450 3A4 [8] = biological target: T1, Cytochrome P450 3A4; assay: Drug metabolism assessed as human CYP3A4-mediated compound formation from 20 uM [14C]boceprevir after 120 mins by LC-MS/FSA method relative to total [14C]boceprevir; type: ADME; conditions: recombinant enzyme, 2 h
Cytochrome P450 3A5 [9] = biological target: T2, Cytochrome P450 3A5 (Homo sapiens, UniProt P20815); assay: Drug metabolism assessed as human CYP3A5-mediated compound formation from 5 uM [14C]boceprevir after 120 mins by LC-MS/FSA method relative to total [14C]boceprevir; type: ADME; conditions: recombinant enzyme, 2 h
Cytochrome P450 3A5 [10] = biological target: T2, Cytochrome P450 3A5; assay: Drug metabolism assessed as human CYP3A5-mediated compound formation from 20 uM [14C]boceprevir after 120 mins by LC-MS/FSA method relative to total [14C]boceprevir; type: ADME; conditions: recombinant enzyme, 2 h
Cytochrome P450 2D6 = Cytochrome P450 2D6 (Homo sapiens, UniProt P10635); assay: Drug metabolism assessed as human CYP2D6-mediated compound formation from 5 uM [14C]boceprevir after 120 mins by LC-MS/FSA method relative to total [14C]boceprevir; type: ADME; conditions: recombinant enzyme, 2 h
Cytochrome P450 2C19 = Cytochrome P450 2C19 (Homo sapiens, UniProt P33261); assay: Drug metabolism assessed as human CYP2C19-mediated compound formation from 5 uM [14C]boceprevir after 120 mins by LC-MS/FSA method relative to total [14C]boceprevir; type: ADME; conditions: recombinant enzyme, 2 h
Cytochrome P450 1A1 = biological target: T3, Cytochrome P450 1A1 (Homo sapiens, UniProt P04798); assay: (§2) Drug metabolism assessed as human […]-mediated compound formation from 5 uM [14C]boceprevir after 120 mins by LC-MS/FSA method relative to total [14C]boceprevir; type: ADME; conditions: recombinant enzyme, 2 h
T3 sequence (P04798 whole entry): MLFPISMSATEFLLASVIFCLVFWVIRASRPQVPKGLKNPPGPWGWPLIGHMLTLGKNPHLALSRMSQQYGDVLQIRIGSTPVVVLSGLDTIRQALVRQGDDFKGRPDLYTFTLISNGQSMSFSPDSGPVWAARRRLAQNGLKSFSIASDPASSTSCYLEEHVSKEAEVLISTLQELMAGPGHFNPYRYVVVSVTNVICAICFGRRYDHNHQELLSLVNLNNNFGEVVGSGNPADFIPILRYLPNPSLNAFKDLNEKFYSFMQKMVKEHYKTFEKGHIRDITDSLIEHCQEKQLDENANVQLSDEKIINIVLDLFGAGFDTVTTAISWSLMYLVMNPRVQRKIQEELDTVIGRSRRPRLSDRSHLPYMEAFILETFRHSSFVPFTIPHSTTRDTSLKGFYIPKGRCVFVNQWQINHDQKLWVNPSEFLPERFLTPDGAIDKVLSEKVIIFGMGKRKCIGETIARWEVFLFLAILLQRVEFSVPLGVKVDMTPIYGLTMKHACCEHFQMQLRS

Cytochrome P450 1A2 = biological target: T4, Cytochrome P450 1A2 (Homo sapiens, UniProt P05177); assay: as §2; type: ADME; conditions: recombinant enzyme, 2 h
T4 sequence (P05177 whole entry): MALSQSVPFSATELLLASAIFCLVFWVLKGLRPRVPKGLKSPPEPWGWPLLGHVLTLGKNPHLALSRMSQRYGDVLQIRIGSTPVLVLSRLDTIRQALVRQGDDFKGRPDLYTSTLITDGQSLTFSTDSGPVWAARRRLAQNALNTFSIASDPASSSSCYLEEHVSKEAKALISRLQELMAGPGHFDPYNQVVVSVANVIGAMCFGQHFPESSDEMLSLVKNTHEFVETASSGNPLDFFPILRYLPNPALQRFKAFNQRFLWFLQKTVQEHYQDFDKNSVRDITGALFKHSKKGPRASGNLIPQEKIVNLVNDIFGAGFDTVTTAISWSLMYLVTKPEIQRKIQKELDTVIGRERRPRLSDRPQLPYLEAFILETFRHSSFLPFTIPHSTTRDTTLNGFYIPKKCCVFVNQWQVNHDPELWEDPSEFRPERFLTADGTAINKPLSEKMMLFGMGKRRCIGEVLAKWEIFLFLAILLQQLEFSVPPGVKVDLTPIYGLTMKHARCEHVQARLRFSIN

Cytochrome P450 2B6 = biological target: T5, Cytochrome P450 2B6 (Homo sapiens, UniProt P20813); assay: Drug metabolism assessed as human CYP2B6-mediated compound formation from 5 uM [14C]boceprevir after 120 mins by LC-MS/FSA method relative to total [14C]boceprevir; type: ADME; conditions: recombinant enzyme, 2 h
T5 sequence (P20813 whole entry): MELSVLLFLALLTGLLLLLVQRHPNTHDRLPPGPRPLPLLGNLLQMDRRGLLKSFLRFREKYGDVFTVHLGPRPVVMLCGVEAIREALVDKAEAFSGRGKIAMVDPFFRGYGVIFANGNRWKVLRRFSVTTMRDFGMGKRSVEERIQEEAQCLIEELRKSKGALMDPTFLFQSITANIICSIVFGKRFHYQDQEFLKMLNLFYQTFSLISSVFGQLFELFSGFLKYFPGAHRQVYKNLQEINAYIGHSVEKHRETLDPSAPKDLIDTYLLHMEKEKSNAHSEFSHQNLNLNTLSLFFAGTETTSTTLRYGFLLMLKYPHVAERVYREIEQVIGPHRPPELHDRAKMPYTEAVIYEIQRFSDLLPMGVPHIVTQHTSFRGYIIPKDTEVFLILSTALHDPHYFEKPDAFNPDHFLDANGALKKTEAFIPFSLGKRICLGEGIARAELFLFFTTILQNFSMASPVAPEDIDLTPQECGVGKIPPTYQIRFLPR

Cytochrome P450 4F3 = biological target: T6, Cytochrome P450 4F3 (Homo sapiens, UniProt Q08477); assay: Drug metabolism assessed as human CYP4F3A-mediated compound formation from 5 uM [14C]boceprevir after 120 mins by LC-MS/FSA method relative to total [14C]boceprevir; type: ADME; conditions: recombinant enzyme, 2 h
T6 sequence (Q08477 whole entry): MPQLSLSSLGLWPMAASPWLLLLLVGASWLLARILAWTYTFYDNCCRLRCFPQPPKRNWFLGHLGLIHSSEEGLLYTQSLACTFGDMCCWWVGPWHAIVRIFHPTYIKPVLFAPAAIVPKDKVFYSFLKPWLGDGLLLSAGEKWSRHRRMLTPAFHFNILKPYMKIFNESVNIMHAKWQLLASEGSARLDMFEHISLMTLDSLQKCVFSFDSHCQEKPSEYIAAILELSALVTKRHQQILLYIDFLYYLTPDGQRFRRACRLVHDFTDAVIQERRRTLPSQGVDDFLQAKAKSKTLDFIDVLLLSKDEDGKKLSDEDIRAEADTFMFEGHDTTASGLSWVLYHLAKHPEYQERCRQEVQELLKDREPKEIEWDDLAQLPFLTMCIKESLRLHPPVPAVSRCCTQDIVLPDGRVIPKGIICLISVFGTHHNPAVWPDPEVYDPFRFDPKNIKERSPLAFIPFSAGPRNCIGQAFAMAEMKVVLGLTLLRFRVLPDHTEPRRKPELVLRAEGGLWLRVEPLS

Liver cytosol [11] = assay: Drug metabolism in human liver cytosol assessed as (1R,2S,5S)-N-((2R,3R)-4-amino-1-cyclobutyl-3-hydroxy-4-oxobutan-2-yl)-3-((S)-2-(3-tert-butylureido)-3,3-dimethylbutanoyl)-6,6-dimethyl-3-azabicyclo[3.1.0]hexane-2-carboxamide formation after 60 mins by LC-MS/MS/FSA method; type: ADME, tissue-based; conditions: 1 h
Liver cytosol [12] = assay: (§3) Drug metabolism in human liver cytosol assessed as (1R,2S,5S)-N-((2R,3R)-4-amino-1-cyclobutyl-3-hydroxy-4-oxobutan-2-yl)-3-((S)-2-(3-tert-butylureido)-3,3-dimethylbutanoyl)-6,6-dimethyl-3-azabicyclo[3.1.0]hexane-2-carboxamide formation per mg protein after 60 mins by LC-MS/MS/FSA method; type: ADME, tissue-based; conditions: 1 h
Liver cytosol [13] = assay: as §3, with “Ratio of Vmax to Km for drug” for “Drug”; type: ADME; conditions: 1 h

T2 sequence (P20815 whole entry): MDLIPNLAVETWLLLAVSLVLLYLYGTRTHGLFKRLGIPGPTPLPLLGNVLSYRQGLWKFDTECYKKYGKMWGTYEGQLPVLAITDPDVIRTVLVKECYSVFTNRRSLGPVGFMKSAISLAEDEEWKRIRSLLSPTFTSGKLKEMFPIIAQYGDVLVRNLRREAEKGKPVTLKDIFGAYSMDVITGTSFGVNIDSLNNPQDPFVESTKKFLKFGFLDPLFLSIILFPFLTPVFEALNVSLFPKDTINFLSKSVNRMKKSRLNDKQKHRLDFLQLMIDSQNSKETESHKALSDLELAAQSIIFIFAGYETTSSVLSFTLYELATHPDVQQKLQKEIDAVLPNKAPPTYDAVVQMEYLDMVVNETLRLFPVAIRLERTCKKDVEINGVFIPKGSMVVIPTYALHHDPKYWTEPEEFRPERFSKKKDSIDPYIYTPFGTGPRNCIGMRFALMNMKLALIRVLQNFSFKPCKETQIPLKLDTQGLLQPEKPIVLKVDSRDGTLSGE
T1 sequence (P08684 whole entry): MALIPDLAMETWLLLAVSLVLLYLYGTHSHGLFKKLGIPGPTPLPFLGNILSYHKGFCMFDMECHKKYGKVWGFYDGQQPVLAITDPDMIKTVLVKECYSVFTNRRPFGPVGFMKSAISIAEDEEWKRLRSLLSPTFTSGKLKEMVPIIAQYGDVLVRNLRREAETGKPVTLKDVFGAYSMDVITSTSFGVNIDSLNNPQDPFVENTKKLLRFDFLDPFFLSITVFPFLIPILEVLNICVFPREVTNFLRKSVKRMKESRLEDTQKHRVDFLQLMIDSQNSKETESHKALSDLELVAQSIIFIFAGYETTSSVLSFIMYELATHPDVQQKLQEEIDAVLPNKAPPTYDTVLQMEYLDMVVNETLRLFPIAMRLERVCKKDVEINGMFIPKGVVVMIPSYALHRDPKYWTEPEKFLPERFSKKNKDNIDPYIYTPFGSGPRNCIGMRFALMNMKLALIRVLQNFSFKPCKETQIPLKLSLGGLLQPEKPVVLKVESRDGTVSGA
Cytochrome P450 2C19, sequence (P33261 whole entry): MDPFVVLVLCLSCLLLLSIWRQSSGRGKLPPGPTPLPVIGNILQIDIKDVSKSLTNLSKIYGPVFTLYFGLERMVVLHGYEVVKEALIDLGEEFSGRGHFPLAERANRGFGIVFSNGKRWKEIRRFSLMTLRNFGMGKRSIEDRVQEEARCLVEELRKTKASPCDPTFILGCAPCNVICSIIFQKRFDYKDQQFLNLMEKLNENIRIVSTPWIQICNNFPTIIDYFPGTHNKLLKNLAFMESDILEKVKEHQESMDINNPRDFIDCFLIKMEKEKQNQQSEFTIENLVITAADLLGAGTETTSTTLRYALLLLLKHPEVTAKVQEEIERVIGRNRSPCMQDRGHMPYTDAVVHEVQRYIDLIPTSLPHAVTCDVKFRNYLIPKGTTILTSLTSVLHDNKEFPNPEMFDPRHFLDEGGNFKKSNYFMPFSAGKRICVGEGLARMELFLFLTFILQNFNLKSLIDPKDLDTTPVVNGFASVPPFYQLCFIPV
Cytochrome P450 2D6, sequence (P10635 whole entry): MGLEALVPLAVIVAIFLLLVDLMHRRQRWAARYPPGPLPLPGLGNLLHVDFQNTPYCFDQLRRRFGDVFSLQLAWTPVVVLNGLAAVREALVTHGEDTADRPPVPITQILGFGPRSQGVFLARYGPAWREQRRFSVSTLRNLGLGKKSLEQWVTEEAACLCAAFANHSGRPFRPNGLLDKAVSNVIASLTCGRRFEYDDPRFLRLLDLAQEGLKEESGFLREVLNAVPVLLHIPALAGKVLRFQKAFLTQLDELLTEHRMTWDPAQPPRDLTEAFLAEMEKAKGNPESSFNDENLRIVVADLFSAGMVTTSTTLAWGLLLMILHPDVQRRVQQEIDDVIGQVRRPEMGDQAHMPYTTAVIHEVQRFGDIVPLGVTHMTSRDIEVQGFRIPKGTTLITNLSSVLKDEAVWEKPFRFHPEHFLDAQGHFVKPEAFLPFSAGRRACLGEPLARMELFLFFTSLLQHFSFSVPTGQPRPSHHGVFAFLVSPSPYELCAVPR

SMILES: CC(C)(C)NC(=O)N[C@H](C(=O)N1C[C@H]2[C@@H]([C@H]1C(=O)N[C@@H](CC1CCC1)C(=O)C(N)=O)C2(C)C)C(C)(C)C [BOCEPREVIR]
- Km (Liver cytosol [1]): 35.5 µM
- Vmax (Liver cytosol [2]): 0.361 pmol/min
- Vmax/Km (Liver cytosol [3]): 10.2 µL/min
- Retention_time [4]: 42.8 min
- Compound recovery (Plasma): >= 50%
- Compound recovery (Liver microsome [5]): 0.21%
- Compound recovery (Liver microsome [6]): 26.12%
- Compound recovery (Cytochrome P450 3A4 [7]; BLD = below limit of detection): BLD
- Compound recovery (Cytochrome P450 3A4 [8]): 37.98%
- Compound recovery (Cytochrome P450 3A5 [9]): 0.98%
- Compound recovery (Cytochrome P450 3A5 [10]): 38.77%
- Compound recovery (Cytochrome P450 2D6): 57.22%
- Compound recovery (Cytochrome P450 2C19): 60.3%
- Compound recovery (Cytochrome P450 1A1): 55.46%
- Compound recovery (Cytochrome P450 1A2): 59.66%
- Compound recovery (Cytochrome P450 2B6): 56.54%
- Compound recovery (Cytochrome P450 4F3): 57.31%

SMILES: CC(C)(C)NC(=O)N[C@H](C(=O)N1C[C@H]2[C@@H]([C@H]1C(=O)O)C2(C)C)C(C)(C)C
- Retention_time [4]: 16.6 min
- Compound recovery (Plasma): <= 10%
- Compound recovery (Liver microsome [5]): 4.2%
- Compound recovery (Liver microsome [6]): 1.1%
- Compound recovery (Cytochrome P450 3A4 [7]): 4.57%
- Compound recovery (Cytochrome P450 3A4 [8]): 0.58%
- Compound recovery (Cytochrome P450 3A5 [9]): 2.22%
- Compound recovery (Cytochrome P450 3A5 [10]): < 0.81%
- Compound recovery (Cytochrome P450 2C19): 0.29%
- Compound recovery (Cytochrome P450 1A1): 0.33%
- Compound recovery (Cytochrome P450 1A2): 0.29%
- Compound recovery (Cytochrome P450 2B6): 0.22%
- Compound recovery (Cytochrome P450 4F3): 0.24%

SMILES: CC(C)(C)NC(=O)N[C@H](C(=O)N1C[C@H]2[C@@H]([C@H]1C(=O)NC(CC1CCC1)C(=O)C(N)=O)C2(C)C)C(C)(C)C (stereo in doubt) [BOCEPREVIR]
- Km (Liver cytosol [1]): 13 µM
- Vmax (Liver cytosol [2]): 28.6 pmol/min
- Vmax/Km (Liver cytosol [3]): 2.2 µL/min
- Km (Liver cytosol [11]): 12.5 µM
- Vmax (Liver cytosol [12]): 34.9 pmol/min
- Vmax/Km (Liver cytosol [13]): 2.8 µL/min
